Experimental data from patent publication US20030032774A1, “Novel opioid peptides for the treatment of pain” (priority 1994, published 2003).
Read-outs that look alike come from different tables or passages of the source. Square brackets hold non-standard residues; d marks the D form. Peptide text beside a SMILES is read from it. Phe(4-NO2) = N[C@@H](Cc1ccc([N+](=O)[O-])cc1)C(=O)O; Phe(4-F) = N[C@@H](Cc1ccc(F)cc1)C(=O)O; 1Nal = N[C@@H](Cc1cccc2ccccc12)C(=O)O; 2Nal = N[C@@H](Cc1ccc2ccccc2c1)C(=O)O; Dmt = Cc1cc(O)cc(C)c1C[C@H](N)C(=O)O; dNle = CCCC[C@@H](N)C(=O)O; dNva = CCC[C@@H](N)C(=O)O

How the values were obtained:
[1] = target: μ receptors (Cavia porcellus, UniProt P97266); assay: Guinea Pig Ileum (GPI) assay, longitudinal muscle preparation
Protocol: The activity of the peptide compounds on μ receptors was determined using the Guinea Pig Ileum (GPI) assay (longitudinal muscle preparation) according to the procedures described in Schiller et al., Biophys. Res. Commun. 85:1322 (1975).

[2] = system: PBQ induced writhing in mice; assay: PBQ (phenylquinone)-induced writhing assay; assay type: in vivo, mouse; settings: for ED50(PBQ): mouse s.c.; for Writhing ED50: Table 2, mouse
Protocol: The test was performed on CD #1 male mice weighing between 18 and 22 g. Mice were weighed, marked and then injected, by the intraperitoneal route, with 0.3 ml/20 g by weight of a solution of phenylquinone at 0.02%. The contortions which appeared during a 15 minute time period following the injection were counted. The phenylquinone was injected at time intervals of 5, 20 or 60 minutes after administration of the compound (or medium, or standard) by subcutaneous route. It was injected at time intervals of 60 minutes after the administration of the compound (or medium, or standard) by oral route;
The 0.02% phenylquinone solution was prepared as follows: 20 mg of phenylquinone was dissolved in 5 ml ethanol 90% (Sigma). The dissolved phenylquinone was slowly added to 95 ml of distilled water continuously shaken and preheated (not boiled). The phenylquinone solution was, at all times protected from light and a new solution was prepared every day for the test. Each group usually contained 10 mice. If an antagonist, such as naloxone, was used, it was administered 20 minutes before the compound (or the medium, or the standard) by the intraperitoneal route.
Writhing assays were performed on CD#1 male mice weighing between […]. Assays were carried out as described in Example 3 and results are summarized below in Table 2.

[3] = target: T1, μ receptor (Rattus norvegicus, UniProt P33535); assay: Radioligand binding assay, μ opioid receptor ((3H)-DAMGO, brain membranes); settings: for Binding Assay Kiδ Kiμ: selectivity ratio
T1 construct: the brains (minus the cerebellum) were removed, placed in ice-cold saline solution, and then homogenized; from tissue; host or cells: rat brain (minus cerebellum) membranes
Protocol: (§1) PBQ (phenyl-ρ-benzoquinone) induced writhing in mice is an assessment of both central and peripheral analgesia (see Sigmund, et al., Proc. Soc. Exp. Biol. Med. 95:729 (1957)). Central analgesia is determined by the inhibition of a hot-plate response in mice (see, Wolfe, et al., J. Pharmacol. Exp. Ther. 80:300 (1944)). Assays measuring opioid receptor binding affinities for μ and δ receptors as well as the GPI assay were determined through experimental protocol set out in Schiller et al. (Biophys. Res. Commun. 85:1322 (1975)). The references by Sigmund, et al., Wolfe, et al., and Schiller, et al. are each hereby incorporated by reference.
(§2) Male Sprague-Dawley rats weighing between 350-450 g were sacrificed by inhalation of CO2. The rats were decapitated and the brains (minus the cerebellum) were removed, placed in ice-cold saline solution, and then homogenized in ice-cold 50 mM Tris buffer pH 7.4 (10 ml/brain). Membranes were centrifuged at 14000 rpm for 30 min. at 4° C. The pellets were re-suspended in approximately 6 ml/brain of ice-cold Tris buffer 50 mM pH 7.4 and stored at −78° C. until ready for use. Protein quantification of the brain homogenate was conducted according to protein assay kit purchased (Bio-Rad).
(§3) (^3H)-DAMGO and (^3H)-DAGLE were used as radioligands for the μ and δ receptors, respectively. Radioligand 50 μl, membranes 100 μl, and serially diluted test compound were incubated for 1 hr at 22° C. Nonspecific binding was determined using a 500 fold excess of unlabeled ligand in the presence of tracer and membranes. Free ligand was separated from bound by filtration through Whatman GF/B paper (presoaked in polyethylenimine 1% aqueous solution) and rinsing with ice-cold 50 mM Tris pH 7.4 using a Brandel cell harvester. The filters were dried and radioactivity was counted in a 24 well microplate in the presence of 500 μl scintillant per well. Radioactivity was measured using a Wallace 1450 Microbeta counter. Ki's for the various compounds were determined from the IC50 according to the Cheng and Prusoff equation.

[4] = target: δ receptor (Rattus norvegicus, UniProt P33533); assay: biochemical
Protocol: as §1, §2, §3

[5] = system: hot-plate response in mice; settings: in vivo; for Hot Plate: sc; for central analgesic effect in the mouse hot plate test: 100 mg/kg
[6] = system: mice; assay: Lethal effects / safety in mice; settings: 1-5 mg kg−1 i.v. bolus dose

T1 sequence (P33535 whole entry): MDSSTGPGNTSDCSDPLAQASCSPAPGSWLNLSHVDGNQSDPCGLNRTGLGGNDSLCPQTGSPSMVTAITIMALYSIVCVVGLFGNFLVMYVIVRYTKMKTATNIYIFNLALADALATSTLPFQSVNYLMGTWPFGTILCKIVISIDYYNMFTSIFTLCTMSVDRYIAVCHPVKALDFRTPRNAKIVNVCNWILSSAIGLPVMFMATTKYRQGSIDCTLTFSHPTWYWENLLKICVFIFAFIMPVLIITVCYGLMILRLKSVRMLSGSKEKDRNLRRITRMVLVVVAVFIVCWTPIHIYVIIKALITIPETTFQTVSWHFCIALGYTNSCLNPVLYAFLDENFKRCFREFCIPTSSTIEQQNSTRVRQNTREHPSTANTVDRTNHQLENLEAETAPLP
Sequence of δ receptor (P33533 whole entry): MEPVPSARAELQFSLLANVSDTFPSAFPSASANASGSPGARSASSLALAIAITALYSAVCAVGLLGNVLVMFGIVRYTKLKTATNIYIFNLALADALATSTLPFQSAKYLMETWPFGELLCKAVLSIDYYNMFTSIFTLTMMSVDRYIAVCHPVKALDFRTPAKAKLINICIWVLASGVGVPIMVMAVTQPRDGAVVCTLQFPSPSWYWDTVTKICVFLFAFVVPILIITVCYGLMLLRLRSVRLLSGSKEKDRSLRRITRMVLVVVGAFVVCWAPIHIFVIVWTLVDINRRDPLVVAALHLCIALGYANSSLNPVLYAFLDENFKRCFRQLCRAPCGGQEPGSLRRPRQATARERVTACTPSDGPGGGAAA
Sequence of μ receptors (P97266 whole entry, looked up): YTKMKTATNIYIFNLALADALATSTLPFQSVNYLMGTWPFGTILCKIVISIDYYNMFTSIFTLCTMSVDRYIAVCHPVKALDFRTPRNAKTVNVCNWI

CCCC[C@@H](NC(=O)[C@@H](N)Cc1ccc(O)cc1)C(=O)N[C@@H](Cc1ccccc1)C(=O)N[C@@H](Cc1ccccc1)C(N)=O [BCH755, H-Tyr-D-Nle-Phe-Phe-NH2] (H-Y[dNle]FF-NH2)
IC50 ([1]; GPI(IC50), Table 1): 15 nM | ED50(PBQ) ([2]; 5 min.): 2.5 (5 min.) mg/kg | Ki ([3]; Ki^μ, Table 1): 0.968 nM

C[C@@H](NC(=O)[C@@H](N)Cc1ccc(O)cc1)C(=O)N[C@@H](Cc1ccccc1)C(=O)N[C@@H](Cc1ccc2ccccc2c1)C(N)=O [BCH757, H-Tyr-D-Ala-Phe-2′-Nal-NH2] (H-Y[dA]F[2Nal]-NH2)
IC50 ([1]; GPI(IC50), Table 1): 2 nM | ED50(PBQ) ([2]; 5 min.): 1.1 (5 min.) mg/kg | Ki ([3]; Ki^μ, Table 1): 0.655 nM

C[C@@H](NC(=O)[C@@H](N)Cc1ccc(O)cc1)C(=O)N[C@@H](Cc1ccccc1)C(=O)N[C@@H](Cc1ccccc1)C(N)=O [BCH1774, H-Tyr-D-Ala-Phe-Phe-NH2] (H-Y[dA]FF-NH2)
IC50 [1]: 3 nM | Ki ([4]; read-out: Binding Assay Kiδ, Table 2): 626 nM | Hot Plate ([5]; mouse): >100 mg/kg | duration of analgesic effect in writhing assay ([2]; 20 mg/kg s.c. BCH1774 vs 30 mg/kg s.c. BCH2463, FIG. 3): lasted longer than for BCH2463 | Writhing ED50 [2]: 1.4 mg/kg | ED50(PBQ) ([2]; 20 min post administration): 1.4 mg/kg | Ki ([3]; Table 1, read-out: Ki^μ): 1.53 nM | Ki ([3]; Table 2, read-out: Binding Assay Kiμ): 1.53 nM | Binding Assay Kiδ Kiμ ([3]; Table 2): 409 | lethal effects upon mice [6]: exhibited lethal effects

C[C@@H](NC(=O)[C@@H](N)Cc1ccc(O)cc1)C(=O)N[C@@H](Cc1ccccc1)C(=O)N[C@@H](Cc1ccc([N+](=O)[O-])cc1)C(N)=O [BCH1776, H-Tyr-D-Ala-Phe-Phe(4-NO2)—NH2] (H-Y[dA]F[Phe(4-NO2)]-NH2)
IC50 ([1]; GPI(IC50), Table 1): 8 nM | ED50(PBQ) ([2]; 20 min post administration): 4 mg/kg | Ki ([3]; Ki^μ, Table 1): 0.509 nM

C[C@@H](NC(=O)[C@@H](N)Cc1ccc(O)cc1)C(=O)N[C@@H](Cc1ccc([N+](=O)[O-])cc1)C(=O)N[C@@H](Cc1ccc([N+](=O)[O-])cc1)C(N)=O [BCH1777, H-Tyr-D-Ala-Phe(4-NO2)-Phe(4-NO2)—NH2] (H-Y[dA][Phe(4-NO2)][Phe(4-NO2)]-NH2)
IC50 ([1]; GPI(IC50), Table 1): 6 nM | ED50(PBQ) ([2]; 20 min post administration): >20 mg/kg | Ki ([3]; Ki^μ, Table 1): 0.826 nM

C[C@@H](NC(=O)[C@@H](N)Cc1ccc(O)cc1)C(=O)N[C@@H](Cc1ccccc1)C(=O)N[C@@H](Cc1cccc2ccccc12)C(N)=O [BCH1782, H-Tyr-D-Ala-Phe-1′-Nal-NH2] (H-Y[dA]F[1Nal]-NH2)
IC50 ([1]; GPI(IC50), Table 1): 2 nM | ED50(PBQ) ([2]; 20 min post administration): >20 mg/kg | Ki ([3]; Ki^μ, Table 1): 0.981 nM

C[C@@H](NC(=O)[C@@H](N)Cc1ccc(O)cc1)C(=O)N[C@@H](Cc1c[nH]c2ccccc12)C(=O)N[C@@H](Cc1ccccc1)C(N)=O [BCH1784, H-Tyr-D-Ala-Trp-Phe-NH2] (H-Y[dA]WF-NH2)
IC50 ([1]; GPI(IC50), Table 1): 20 nM | ED50(PBQ) ([2]; 20 min post administration): >20 mg/kg | Ki ([3]; Ki^μ, Table 1): 3.57 nM

C[C@@H](NC(=O)[C@@H](N)Cc1ccc(O)cc1)C(=O)N[C@@H](Cc1ccccc1)C(=O)N[C@@H](Cc1c[nH]c2ccccc12)C(N)=O [BCH1785, H-Tyr-D-Ala-Phe-Trp-NH2] (H-Y[dA]FW-NH2)
IC50 ([1]; GPI(IC50), Table 1): 16 nM | ED50(PBQ) ([2]; 20 min post administration): >20 mg/kg | Ki ([3]; Ki^μ, Table 1): 2.21 nM

CCC[C@@H](NC(=O)[C@@H](N)Cc1ccc(O)cc1)C(=O)N[C@@H](Cc1ccccc1)C(=O)N[C@@H](Cc1ccccc1)C(N)=O [BCH2462, H-Tyr-D-Nva-Phe-Phe-NH2] (H-Y[dNva]FF-NH2)
central analgesic effect in the mouse hot plate test [5]: No central analgesic effect was observed | reaction time in the hot plate test ([5]; mouse): approximately 8 seconds | Hot Plate ([5]; mouse): >100 mg/kg | ED50(PBQ) ([2]; 20 min post administration): 2.7 mg/kg | lethal effects upon mice [6]: exhibited lethal effects

N=C(N)NCCC[C@@H](NC(=O)[C@@H](N)Cc1ccc(O)cc1)C(=O)N[C@@H](Cc1ccccc1)C(=O)N[C@@H](Cc1ccccc1)C(N)=O [BCH2687, H-Tyr-D-Arg-Phe-Phe-NH2] (H-Y[dR]FF-NH2)
central analgesic effect in the mouse hot plate test [5]: No central analgesic effect was observed | reaction time in the hot plate test ([5]; mouse): approximately 8 seconds | Hot Plate ([5]; mouse): >100 mg/kg | Writhing ED50 [2]: 0.5 mg/kg

NC(=O)[C@H](Cc1ccccc1)NC(=O)[C@H](Cc1ccccc1)NC(=O)[C@@H](CS)NC(=O)[C@@H](N)Cc1ccc(O)cc1 [BCH2690, H-Tyr-D-Cys-Phe-Phe-NH2] (H-Y[dC]FF-NH2)
Hot Plate ([5]; mouse): >100 mg/kg | ED50(PBQ) ([2]; 20 min post administration): 6.2 mg/kg

Cc1cc(O)cc(C)c1C[C@H](N)C(=O)N[C@H](CO)C(=O)N[C@@H](Cc1ccccc1)C(=O)N[C@@H](Cc1ccccc1)C(N)=O [BCH2813, H-Dmt-D-Ser-Phe-Phe-NH2] (H-[Dmt][dS]FF-NH2)
dose at which found to act centrally in the hot plate test ([5]; mouse): about 40 mg/kg | ED50(PBQ) ([2]; 20 min post administration): 0.15 mg/kg

C[C@@H](NC(=O)[C@@H](N)Cc1ccc(O)cc1)C(=O)N[C@@H](Cc1ccc(F)cc1)C(=O)N[C@@H](Cc1ccc(F)cc1)C(N)=O [Compound #1B, H-Tyr-D-Ala-Phe(pF)-Phe(pF)-NH2] (H-Y[dA][Phe(4-F)][Phe(4-F)]-NH2)
IC50 ([1]; CPI IC50, Table 2): 0.12 nM | Ki [4]: 200 nM | Writhing ED50 [2]: 0.2 mg/kg | Ki ([3]; Binding Assay Kiμ, Table 2): 0.2 nM | Binding Assay Kiδ Kiμ ([3]; Table 2): 998

C[C@@H](NC(=O)[C@@H](N)Cc1ccc(O)cc1)C(=O)N[C@@H](Cc1ccc(F)cc1)C(=O)N[C@@H](Cc1ccccc1)C(N)=O [Compound #1C, H-Tyr-D-Ala-Phe(pF)-Phe-NH2] (H-Y[dA][Phe(4-F)]F-NH2)
Ki [4]: 201 nM | Writhing ED50 [2]: 0.5 mg/kg | Ki ([3]; Binding Assay Kiμ, Table 2): 0.36 nM | Binding Assay Kiδ Kiμ ([3]; Table 2): 559

N=C(N)NCCC[C@@H](NC(=O)[C@@H](N)Cc1ccc(O)cc1)C(=O)N[C@@H](Cc1ccc(F)cc1)C(=O)N[C@@H](Cc1ccc(F)cc1)C(N)=O [Compound #2B, H-Tyr-D-Arg-Phe(pF)-Phe(pF)-NH2] (H-Y[dR][Phe(4-F)][Phe(4-F)]-NH2)
Ki [4]: > 1000 nM | Writhing ED50 [2]: 0.3 mg/kg | Ki ([3]; Binding Assay Kiμ, Table 2): 0.22 nM

N=C(N)NCCC[C@@H](NC(=O)[C@@H](N)Cc1ccc(O)cc1)C(=O)N[C@@H](Cc1ccc(F)cc1)C(=O)N[C@@H](Cc1ccccc1)C(N)=O [Compound #2C, H-Tyr-D-Arg-Phe(pF)-Phe-NH2] (H-Y[dR][Phe(4-F)]F-NH2)
IC50 ([1]; CPI IC50, Table 2): 1.52 nM | Ki [4]: 952 nM | Writhing ED50 [2]: 0.3 mg/kg | Ki ([3]; Binding Assay Kiμ, Table 2): 0.57 nM | Binding Assay Kiδ Kiμ ([3]; Table 2): 1671

H-Y[dS]FF-NH2 [BCH2463]
central analgesic effect in the mouse hot plate test [5]: No central analgesic effect was observed | reaction time in the hot plate test ([5]; mouse): about 9 seconds | Hot Plate ([5]; mouse): >100 mg/kg | ED50(PBQ) ([2]; 20 min post administration): 0.5 mg/kg
